Source: US12522569B2, “Substituted benzimidazole derivative and use thereof” (Chengdu FANXI Biopharma Co., Ltd., priority 2020, dated 2026)

Key:
Assay type in all cases: cell-based
hPPARα (LBD) = target: T1, hPPARα (LBD) (Homo sapiens, UniProt Q07869); assay: GAL4-hPPARα (LBD) luciferase reporter transactivation in CV-1 cells; settings: about 40 hours, relative to GW-590735 as 100%, read-out: PPAR activities EC50 PPARα
T1 construct: The receptor expression plasmid (pSG5-GAL4-hPPARα or γ or δ (LBD)); GAL4 (fusion partner); expressed in transfected cells; host or cells: CV-1 cells (ATCC)
T1 sequence (Q07869 239-466 limits assumed): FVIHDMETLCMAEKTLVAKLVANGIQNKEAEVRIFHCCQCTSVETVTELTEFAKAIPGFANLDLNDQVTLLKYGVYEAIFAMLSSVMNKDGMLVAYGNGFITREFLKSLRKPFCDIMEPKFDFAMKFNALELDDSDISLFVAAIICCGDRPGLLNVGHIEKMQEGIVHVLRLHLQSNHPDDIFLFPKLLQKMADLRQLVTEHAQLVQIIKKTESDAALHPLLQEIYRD
Experimental: (§1) The PPARδ activation effect of the compounds of the present invention was determined as follows (measurement of the PPAR activation effect of the test compounds (compounds in the examples)).
(§2) The receptor expression plasmid (pSG5-GAL4-hPPARα or γ or δ (LBD)), luciferase expression plasmid (pUC8-MH100×4-TK-Luc) and β-galactosidase expression plasmid (pCMX-β-GAL) (Kliewer, S. A. et. al., (1992) Nature, 358:771-774) were introduced into CV-1 cells (ATCC).
(§3) After gene introduction using the lipofection reagent DMRIE-C or Lipofectamin 2000 (Invitrogen), the cells were cultured in the presence of the test compound for 42 hours. Lysed cells were tested for luciferase activity and β-GAL activity.
(§4) The following methods were used to determine the PPAR activation effect of the tested compounds (compounds in the examples)
(§5) Receptor expression plasmid (pSG5-GAL4-hPPARα, 7 or 6 (LBD)), luciferase expression plasmid (pUC8-MH100×4-TK-Luc) and β-Galactosidase expression plasmid (pCMX-β-GAL) (Kilewer, S. A. et. al., (1992) Nature, 358: 771-774) were introduced into CV-1 cells (ATCC). After gene introduction using a lipofection reagent (Lipofectamine 2000 (Invitrogen)), the cells were cultured in the presence of the test compounds for about 40 hours.

hPPARγ (LBD) = target: T2, hPPARγ (LBD) (Homo sapiens, UniProt P37231); assay: GAL4-hPPARγ (LBD) luciferase reporter transactivation in CV-1 cells; settings: about 40 hours, relative to Rosiglitazone as 100%, read-out: PPAR activities EC50 PPARγ
T2 construct: The receptor expression plasmid (pSG5-GAL4-hPPARα or γ or δ (LBD)); GAL4 (fusion partner); expressed in transfected cells; host or cells: CV-1 cells (ATCC)
T2 sequence (P37231 238-503 limits assumed): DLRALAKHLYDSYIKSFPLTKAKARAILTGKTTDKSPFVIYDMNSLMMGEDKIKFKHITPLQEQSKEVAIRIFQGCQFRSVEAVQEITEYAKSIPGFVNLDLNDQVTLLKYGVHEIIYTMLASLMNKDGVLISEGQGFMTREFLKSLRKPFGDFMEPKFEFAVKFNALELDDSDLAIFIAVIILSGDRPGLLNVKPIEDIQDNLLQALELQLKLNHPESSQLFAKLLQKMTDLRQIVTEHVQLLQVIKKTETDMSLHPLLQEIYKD
Experimental: as §1, §2, §3, §4, §5

hPPARδ (LBD) = target: T3, hPPARδ (LBD) (Homo sapiens, UniProt Q03181); assay: GAL4-hPPARδ (LBD) luciferase reporter transactivation in CV-1 cells; settings: about 40 hours, relative to GW-501516 as 100%, read-out: PPAR activities EC50 PPARδ
T3 construct: The receptor expression plasmid (pSG5-GAL4-hPPARα or γ or δ (LBD)); GAL4 (fusion partner); expressed in transfected cells; host or cells: CV-1 cells (ATCC)
T3 sequence (Q03181 211-439 limits assumed): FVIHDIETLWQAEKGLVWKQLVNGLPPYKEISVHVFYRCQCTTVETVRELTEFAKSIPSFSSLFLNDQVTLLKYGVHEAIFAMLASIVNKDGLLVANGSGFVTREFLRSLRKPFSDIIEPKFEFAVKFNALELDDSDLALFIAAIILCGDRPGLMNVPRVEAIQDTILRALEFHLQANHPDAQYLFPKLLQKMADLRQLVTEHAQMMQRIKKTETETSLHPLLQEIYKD
Experimental: as §1, §2, §3, §4, §5

EC50 (hPPARα (LBD)) | EC50 (hPPARγ (LBD)) | EC50 (hPPARδ (LBD)) | SMILES
0.104 µM | 0.186 µM | 0.0365 µM | CCc1cc(COc2ccccc2Cn2c(CCc3ccc(Cl)cc3Cl)nc3cc(Br)ccc32)ccc1CCC(=O)O [Compound 3, 3-(4-((2-((5-Bromo-2-(2.4-dichlorophenethyl)-1H-benzo[d]imidazol-1-yl)methyl)phenoxy)methyl)-2-ethylphenyl)propanoic acid]
2.11 µM | 9.11 µM | 6.56 µM | CCc1cc(COc2ccccc2Cn2c(CCCN3CCCC3)nc3cc(Br)ccc32)ccc1OCC(=O)O [Compound 15, 2-(4-((2-((5-Bromo-2-(3-(pyrrolidin-1-yl)propyl)-1H-benzo[d]imidazol-1-yl)methyl)phenoxy)methyl)-2-ethylphenoxy)acetic acid]
3.99 µM | 2.04 µM | 0.803 µM | CCc1cc(COc2ccccc2Cn2c(CN3CCCC3)nc3cc(Br)ccc32)ccc1OCC(=O)O [Compound 50]
3.05 µM | 15.4 µM | 41.8 µM | CCc1cc(COc2ccccc2Cn2c(CCCN3CCCC3)nc3cc(Br)ccc32)ccc1CCC(=O)O [Compound 17, 3-(4-((2-((5-Bromo-2-(3-(pyrrolidin-1-yl)propyl)-1H-benzo[d]imidazol-1-yl)methyl)-phenoxy)methyl)-2-ethylphenyl)propanoic acid]
3.42 µM | 0.672 µM | 0.142 µM | CCc1cc(COc2ccccc2Cn2c(CN3CCCC3)nc3cc(Br)ccc32)ccc1CCC(=O)O [Compound 14]
